Measured values published in ChEMBL document CHEMBL4699534, “Optimizing PEG-Extended Apelin Analogues as Cardioprotective Drug Leads: Importance of the KFRR Motif and Aromatic Head Group for Improved Physiological Activity” (J Med Chem, 2020).
Non-standard residues stand in square brackets, D forms with d. Residues, ends and D or L forms follow the SMILES beside them. *: point of attachment. PEG10 = NCCOCCOCCOCCOCCOCCOCCOCCOCCOCCOCCC(=O)O; Bpa = N[C@@H](Cc1ccc(C(=O)c2ccccc2)cc1)C(=O)O; Phe(4-Br) = N[C@@H](Cc1ccc(Br)cc1)C(=O)O; PEG7 = NCCOCCOCCOCCOCCOCCOCCOCCC(=O)O; Fmoc = O=C(OCC1c2ccccc2-c2ccccc21)*; αMeR = C[C@](N)(CCCNC(=N)N)C(=O)O; NMeL = CN[C@@H](CC(C)C)C(=O)O; PEG3 = NCCOCCOCCOCCC(=O)O; Nle = CCCC[C@H](N)C(=O)O; Aib = CC(C)(N)C(=O)O

How the values were obtained:
[1] = Half life in human plasma at 400 uM by HPLC analysis; assay type: ADME, cell-free
[2] = biological target: T1, Apelin receptor (Homo sapiens, UniProt P35414); test: Activation of APJ receptor (unknown origin) expressed in Chem-5 cells assessed as stimulation of Ca2+ mobilization by Calcium 6-GF dye based fluorescence based assay; assay type: functional, cell-based
T1 sequence (P35414 whole entry): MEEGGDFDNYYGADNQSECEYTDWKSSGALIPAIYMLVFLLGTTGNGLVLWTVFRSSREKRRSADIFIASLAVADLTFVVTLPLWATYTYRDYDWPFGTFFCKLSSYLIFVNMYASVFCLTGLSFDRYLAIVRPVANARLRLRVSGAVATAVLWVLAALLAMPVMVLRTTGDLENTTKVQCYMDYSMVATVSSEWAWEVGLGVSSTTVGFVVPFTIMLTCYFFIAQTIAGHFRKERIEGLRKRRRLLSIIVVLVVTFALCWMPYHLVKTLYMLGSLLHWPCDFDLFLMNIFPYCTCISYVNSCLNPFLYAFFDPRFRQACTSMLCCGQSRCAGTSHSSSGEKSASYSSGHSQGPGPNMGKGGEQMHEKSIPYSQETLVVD

[3] = biological target: T2, Apelin receptor (Rattus norvegicus, UniProt Q9JHG3); test: Displacement of [125I]-pyr-1-apelin-13 from EGFP-tagged wild-type rat apelin receptor expressed in CHO cell membranes by gamma counting method; set-up: species or system Cell membrane
T2 sequence (Q9JHG3 whole entry): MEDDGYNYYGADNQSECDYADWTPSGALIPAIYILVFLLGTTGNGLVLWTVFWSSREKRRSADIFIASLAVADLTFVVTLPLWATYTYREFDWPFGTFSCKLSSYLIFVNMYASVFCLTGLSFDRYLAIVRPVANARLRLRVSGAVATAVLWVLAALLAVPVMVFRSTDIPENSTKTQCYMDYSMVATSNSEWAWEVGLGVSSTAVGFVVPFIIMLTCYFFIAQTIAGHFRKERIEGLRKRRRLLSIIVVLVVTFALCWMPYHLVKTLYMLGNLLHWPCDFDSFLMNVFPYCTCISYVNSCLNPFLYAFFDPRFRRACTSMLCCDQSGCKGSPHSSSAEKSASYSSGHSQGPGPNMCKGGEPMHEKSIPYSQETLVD

[4] = tested on: Mus musculus; test: Cardioprotective activity in C57BL/6 mouse assessed as reduction in mean arterial blood pressure at 1.4 uM/kg, iv measured after 15 mins relative to control; assay type: functional; conditions: 0.25 h

| Compound | half-life at 400 µM [1] | EC50 [2] | IC50 [3] | Activity [4] |
| --- | --- | --- | --- | --- |
| CCCC[C@H](NC(=O)[C@@H]1CCCN1C(=O)CNC(=O)[C@H](CCCCN)NC(=O)[C@H](Cc1c[nH]cn1)NC(=O)[C@H](CO)NC(=O)[C@H](CC(C)C)N(C)C(=O)[C@H](CCCNC(=N)N)NC(=O)[C@@H]1CCCN1C(=O)[C@H](CCCNC(=N)N)NC(=O)[C@H](CCC(N)=O)NC(=O)[C@](C)(CCCNC(=N)N)NC(=O)[C@H](CCCNC(=N)N)NC(=O)[C@H](Cc1ccccc1)NC(=O)[C@@H](N)CCCCN)C(=O)NC(C)(C)C(=O)N[C@@H](Cc1ccc(Br)cc1)C(=O)O (H-KFR[αMeR]QRPR[NMeL]SHKGP[Nle][Aib][Phe(4-Br)]-OH) | 7.1 h | 2.4 nM | 1 nM | 18 mmHg |
| CCCC[C@H](NC(=O)[C@@H]1CCCN1C(=O)CNC(=O)[C@H](CCCCN)NC(=O)[C@H](Cc1c[nH]cn1)NC(=O)[C@H](CO)NC(=O)[C@H](CC(C)C)NC(=O)[C@H](CCCNC(=N)N)NC(=O)[C@@H]1CCCN1C(=O)[C@H](CCCNC(=N)N)NC(=O)[C@H](CCC(N)=O)NC(=O)[C@H](CCCNC(=N)N)NC(=O)[C@H](CCCNC(=N)N)NC(=O)[C@H](C)NC(=O)[C@@H](N)CCCCN)C(=O)NC(C)(C)C(=O)N[C@@H](Cc1ccc(Br)cc1)C(=O)O (H-KARRQRPRLSHKGP[Nle][Aib][Phe(4-Br)]-OH) | – | – | 0.295 nM | – |
| CSCC[C@H](NC(=O)[C@@H]1CCCN1C(=O)CNC(=O)[C@H](CCCCN)NC(=O)[C@H](Cc1c[nH]cn1)NC(=O)[C@H](CO)NC(=O)[C@H](CC(C)C)NC(=O)[C@H](CCCNC(=N)N)NC(=O)[C@@H]1CCCN1C(=O)[C@H](CCCNC(=N)N)NC(=O)[C@H](CCC(N)=O)NC(=O)[C@H](CCCNC(=N)N)NC(=O)[C@H](CCCNC(=N)N)NC(=O)[C@H](C)NC(=O)[C@@H](N)CCCCN)C(=O)N1CCC[C@H]1C(=O)N[C@@H](Cc1ccccc1)C(=O)O | – | 6.17 nM | 1 nM | -3 mmHg |
| CCCC[C@H](NC(=O)[C@@H]1CCCN1C(=O)CNC(=O)[C@H](CCCCN)NC(=O)[C@H](Cc1c[nH]cn1)NC(=O)[C@H](CO)NC(=O)[C@H](CC(C)C)N(C)C(=O)[C@H](CCCNC(=N)N)NC(=O)[C@@H]1CCCN1C(=O)[C@H](CCCNC(=N)N)NC(=O)[C@H](CCC(N)=O)NC(=O)[C@H](CCCNC(=N)N)NC(=O)[C@H](CCCNC(=N)N)NC(=O)[C@H](Cc1ccccc1)NC(=O)[C@H](CCCCN)NC(=O)CCOCCOCCOCCOCCOCCOCCOCCOCCOCCOCCNC(=O)OCC1c2ccccc2-c2ccccc21)C(=O)NC(C)(C)C(=O)N[C@@H](Cc1ccc(Br)cc1)C(=O)O ({Fmoc-PEG10}-KFRRQRPR[NMeL]SHKGP[Nle][Aib][Phe(4-Br)]-OH) | 17.2 h | 4.9 nM | 2.4 nM | 28 mmHg |
| CCCC[C@H](NC(=O)[C@@H]1CCCN1C(=O)CNC(=O)[C@H](CCCCN)NC(=O)[C@H](Cc1c[nH]cn1)NC(=O)[C@H](CO)NC(=O)[C@H](CC(C)C)N(C)C(=O)[C@H](CCCNC(=N)N)NC(=O)[C@@H]1CCCN1C(=O)[C@H](CCCNC(=N)N)NC(=O)[C@H](CCC(N)=O)NC(=O)[C@H](CCCNC(=N)N)NC(=O)[C@H](CCCNC(=N)N)NC(=O)[C@H](Cc1ccccc1)NC(=O)[C@H](CCCCN)NC(=O)CCOCCOCCOCCNC(=O)OCC1c2ccccc2-c2ccccc21)C(=O)NC(C)(C)C(=O)N[C@@H](Cc1ccc(Br)cc1)C(=O)O ({Fmoc-PEG3}-KFRRQRPR[NMeL]SHKGP[Nle][Aib][Phe(4-Br)]-OH) | 2 h | 17 nM | 2.51 nM | 32 mmHg |
| CCCC[C@H](NC(=O)[C@@H]1CCCN1C(=O)CNC(=O)[C@H](CCCCN)NC(=O)[C@H](Cc1c[nH]cn1)NC(=O)[C@H](CO)NC(=O)[C@H](CC(C)C)N(C)C(=O)[C@H](CCCNC(=N)N)NC(=O)[C@@H]1CCCN1C(=O)[C@H](CCCNC(=N)N)NC(=O)[C@H](CCC(N)=O)NC(=O)CCOCCOCCOCCOCCOCCOCCOCCOCCOCCOCCNC(=O)OCC1c2ccccc2-c2ccccc21)C(=O)NC(C)(C)C(=O)N[C@@H](Cc1ccc(Br)cc1)C(=O)O | 8.6 h | > 200 nM | 1.91 nM | 1 mmHg |
| CCCC[C@H](NC(=O)[C@@H]1CCCN1C(=O)CNC(=O)[C@H](CCCCN)NC(=O)[C@H](Cc1c[nH]cn1)NC(=O)[C@H](CO)NC(=O)[C@H](CC(C)C)NC(=O)[C@H](CCCNC(=N)N)NC(=O)[C@@H]1CCCN1C(=O)[C@H](CCCNC(=N)N)NC(=O)[C@H](CCC(N)=O)NC(=O)[C@H](CCCNC(=N)N)NC(=O)[C@H](C)NC(=O)[C@H](Cc1ccccc1)NC(=O)[C@@H](N)CCCCN)C(=O)NC(C)(C)C(=O)N[C@@H](Cc1ccc(Br)cc1)C(=O)O (H-KFARQRPRLSHKGP[Nle][Aib][Phe(4-Br)]-OH) | – | – | 0.219 nM | – |
| CSCC[C@H](NC(=O)[C@@H]1CCCN1C(=O)CNC(=O)[C@H](CCCCN)NC(=O)[C@H](Cc1c[nH]cn1)NC(=O)[C@H](CO)NC(=O)[C@H](CC(C)C)NC(=O)[C@H](CCCNC(=N)N)NC(=O)[C@@H]1CCCN1C(=O)[C@H](CCCNC(=N)N)NC(=O)[C@H](CCC(N)=O)NC(=O)[C@H](C)NC(=O)[C@H](CCCNC(=N)N)NC(=O)[C@H](Cc1ccccc1)NC(=O)[C@@H](N)CCCCN)C(=O)N1CCC[C@H]1C(=O)N[C@@H](Cc1ccccc1)C(=O)O | – | 74.1 nM | 2.19 nM | -9 mmHg |

Continued by falling IC50 [3], values first:

| half-life at 400 µM [1] | EC50 [2] | IC50 [3] | Compound | Activity [4] |
| --- | --- | --- | --- | --- |
| – | 39.8 nM | 1.41 nM | CSCC[C@H](NC(=O)[C@@H]1CCCN1C(=O)CNC(=O)[C@H](CCCCN)NC(=O)[C@H](Cc1c[nH]cn1)NC(=O)[C@H](CO)NC(=O)[C@H](CC(C)C)NC(=O)[C@H](CCCNC(=N)N)NC(=O)[C@@H]1CCCN1C(=O)[C@H](CCCNC(=N)N)NC(=O)[C@H](CCC(N)=O)NC(=O)[C@H](CCCNC(=N)N)NC(=O)[C@H](C)NC(=O)[C@H](Cc1ccccc1)NC(=O)[C@@H](N)CCCCN)C(=O)N1CCC[C@H]1C(=O)N[C@@H](Cc1ccccc1)C(=O)O | 1 mmHg |
| 8.2 h | 89.1 nM | 1.29 nM | CCCC[C@H](NC(=O)[C@@H]1CCCN1C(=O)CNC(=O)[C@H](CCCCN)NC(=O)[C@H](Cc1c[nH]cn1)NC(=O)[C@H](CO)NC(=O)[C@H](CC(C)C)N(C)C(=O)[C@H](CCCNC(=N)N)NC(=O)[C@@H]1CCCN1C(=O)[C@H](CCCNC(=N)N)NC(=O)[C@H](CCC(N)=O)NC(=O)[C@H](CCCNC(=N)N)NC(=O)[C@H](CCCNC(=N)N)NC(=O)[C@H](Cc1ccccc1)NC(=O)[C@H](CCCCN)NC(=O)CCOCCOCCOCCOCCOCCOCCOCCNC(=O)[C@@H](N)Cc1ccc(C(=O)c2ccccc2)cc1)C(=O)NC(C)(C)C(=O)N[C@@H](Cc1ccc(Br)cc1)C(=O)O (H-[Bpa][PEG7]KFRRQRPR[NMeL]SHKGP[Nle][Aib][Phe(4-Br)]-OH) | 43 mmHg |
| – | 5.37 nM | 1 nM | CSCC[C@H](NC(=O)[C@@H]1CCCN1C(=O)CNC(=O)[C@H](CCCCN)NC(=O)[C@H](Cc1c[nH]cn1)NC(=O)[C@H](CO)NC(=O)[C@H](CC(C)C)NC(=O)[C@H](CCCNC(=N)N)NC(=O)[C@@H]1CCCN1C(=O)[C@H](CCCNC(=N)N)NC(=O)[C@H](CCC(N)=O)NC(=O)[C@H](CCCNC(=N)N)NC(=O)[C@H](CCCNC(=N)N)NC(=O)[C@H](Cc1ccccc1)NC(=O)[C@H](C)N)C(=O)N1CCC[C@H]1C(=O)N[C@@H](Cc1ccccc1)C(=O)O | -14 mmHg |
| – | – | 0.302 nM | CCCC[C@H](NC(=O)[C@@H]1CCCN1C(=O)CNC(=O)[C@H](CCCCN)NC(=O)[C@H](Cc1c[nH]cn1)NC(=O)[C@H](CO)NC(=O)[C@H](CC(C)C)NC(=O)[C@H](CCCNC(=N)N)NC(=O)[C@@H]1CCCN1C(=O)[C@H](CCCNC(=N)N)NC(=O)[C@H](CCC(N)=O)NC(=O)[C@H](C)NC(=O)[C@H](CCCNC(=N)N)NC(=O)[C@H](Cc1ccccc1)NC(=O)[C@@H](N)CCCCN)C(=O)NC(C)(C)C(=O)N[C@@H](Cc1ccc(Br)cc1)C(=O)O (H-KFRAQRPRLSHKGP[Nle][Aib][Phe(4-Br)]-OH) | – |
| – | – | 0.2 nM | CCCC[C@H](NC(=O)[C@@H]1CCCN1C(=O)CNC(=O)[C@H](CCCCN)NC(=O)[C@H](Cc1c[nH]cn1)NC(=O)[C@H](CO)NC(=O)[C@H](CC(C)C)NC(=O)[C@H](CCCNC(=N)N)NC(=O)[C@@H]1CCCN1C(=O)[C@H](CCCNC(=N)N)NC(=O)[C@H](CCC(N)=O)NC(=O)[C@H](CCCNC(=N)N)NC(=O)[C@H](CCCNC(=N)N)NC(=O)[C@H](Cc1ccccc1)NC(=O)[C@H](C)N)C(=O)NC(C)(C)C(=O)N[C@@H](Cc1ccc(Br)cc1)C(=O)O (H-AFRRQRPRLSHKGP[Nle][Aib][Phe(4-Br)]-OH) | – |
